Data: patent US4001325A, “α-Chloroacetanilide selective herbicides” (Diamond Shamrock Corporation, priority 1973, dated 1977)

How the values were obtained:
Soybeans [1] = experiment: Example 18 phytotoxic effects on crop stands in different soils; format: in vivo, soybean
Description: (§1) To further illustrate the herbicidal activity of compounds of this invention in different types of soil as would be encountered in different crop growing localities, a preemergence herbicide test is conducted generally as outlined previously herein. Two light sandy soils are employed containing 0.7% and 1.8% organic matter (O.M.), respectively, along with two loam-type, heavier soils containing either 2.0% or 5-5.5% organic matter (O.M.).
(§2) The test plots are all sprayed uniformly with formulations of the test compounds providing 2.0, 1.0, 0.5, and 0.25 pound of active chemical per acre (lb/A).
(§3) Prior to treatment, the soil plots are sown to field corn, soybean, and grain sorghum crops and seeds of barnyard-grass and yellow foxtail.
(§4) Three weeks after planting, the percent control of plant growth is rated from 0% (no injury) to 100% (total destruction). The results obtained are as follows:
(§5) Phytotoxic effects on the crop stands are similarly rated with the following results: […]

Barnyardgrass = experiment: Example 18 preemergence herbicide test in different soils, % control; format: in vivo, barnyard-grass; conditions: three weeks
Description: as §1, §2, §3
(§6) Three weeks after planting, the percent control of plant growth is rated from 0% (no injury) to 100% (total destruction).

Sorghum = experiment: Example 18 phytotoxic effects on crop stands in different soils; format: in vivo, grain sorghum
Description: as §1, §2, §3, §4, §5

Yellow Foxtail = experiment: Example 18 preemergence herbicide test in different soils, % control; format: in vivo; conditions: three weeks
Description: as §1, §2, §3, §6

Corn [2] = experiment: Field preemergence test, phytotoxic effects on crop; format: in vivo, sweet corn
Description: (§7) Test plots of fertilized, light sandy soil containing 0.7% organic matter are sprayed uniformly with aqueous suspensions prepared from emulsifiable concentrates containing 12%, by weight, of the test chemicals diluted to provide dosage rates of the test compounds corresponding to 2.0, 1.0, 0.5, and 0.25 pound per acre (lb/A). The plots are then sown with seeds of the following crop plants: sweet corn, cotton (Coker 413) and soybeans, var. Davis. Seeds of the following weed plants are planted: redroot pigweed, prickly sida, common lambsquarter, goosegrass and giant foxtail.
(§8) Three to four weeks after planting, percent control (plant kill) of the test plants is estimated, from a rating of 0 which denotes no injury to the plant up to 100 which denotes complete destruction. The herbicidal action of the test compounds obtained on the weed species is as follows:
(§9) Phytotoxic effects observed on the crop species is estimated with results as follows: […]

[3] = tested on: broadleaf species: pigweed, velvetleaf, morningglory; experiment: Greenhouse preemergence herbicide test, broadleaves; format: in vivo; conditions: two weeks after treatment, 20160 min
Description: To illustrate the preemergence herbicidal efficiency of the alkyl-substituted 2-chloro-N-propargylacetanilides of this invention, test formulations are prepared of each compound by mixing 20 ml of an acetone solution containing 0.125 g of chemical with 20 ml of water containing 0.01 g of Triton X-155 surfactant. The resultant formulations contain 3125 ppm of test compound, 50% by volume of acetone and 0.025% by weight of surfactant. Appropriate lower concentrations are obtained by diluting this formulation with surfactant-acetone solution so that the concentration of adjuvants is maintained at the original levels.
Seeds of three broadleaf and three grass species are planted in soil contained in 10 inch × 8 inch × 3 inch aluminum pans filled with 1.5 inches of composted soil. The broadleaf species are pigweed (Amaranthus retroflexus), velvetleaf (Abutilon theophrasti), and morningglory (Ipomea coccinea); the grasses are red millet (Panicum milliacem), green foxtail (Setaria viridis) and Japanese millet (Echinochloa frumentacea).
The seeded pans are sprayed so that the soil surface is uniformly covered with dilutions of the stock formulation providing dosage rates of the test compounds as shown in the following table.
Two weeks after treatment, percent control (plant kill) at each dosage rate is estimated with results as follows: […]

Velvetleaf = experiment: Example 17 selective herbicidal activity in corn crop, weed kill; format: in vivo; conditions: Abutilon theophrasti, 3-4 weeks after planting
Description: (§10) This example illustrates the selective herbicidal activity of two of the presently preferred compounds of this invention against various weed species in a corn crop.
(§11) Plots of light sandy soil, cleared of all weeds, are uniformly treated with aqueous dispersions prepared from an emulsifiable concentrate containing 2- 4 pounds of active ingredient per gallon. Diluted aqueous dispersions are applied as surface treatments at 2.0, 1.0, 0.5, and 0.25 pound of active ingredient per acre (lb/A).
(§12) The treated test plots are sown to corn and with seeds of the following weed species:
(§13) Three to four weeks after planting, the degree of damage to both the corn stands and the weed plants is assessed from a rating of 0% (no injury) to 100% (complete destruction).

Fall Panicum = experiment: as above; format: in vivo; conditions: Panicum dichotomiflorum, 3-4 weeks after planting
Description: as §10, §11, §12, §13

Soybeans [4] = experiment: Field preemergence test, phytotoxic effects on crop; format: in vivo, var. Davis
Description: as §7, §8, §9

Cotton = experiment: as above; format: in vivo, cotton (Coker 413)
Description: as §7, §8, §9

corn [5] = experiment: Example 17 damage to corn crop; format: in vivo; conditions: 1 lb/A
Description: as §10, §11, §12, §13

[6] = 0.5 lb/A, Heavy Soil 5-5.5% O.M.
[7] = 0.5 lb/A, Medium Soil 2.0% O.M.
[8] = 1.0 lb/A, Heavy Soil 5-5.5% O.M.
[9] = 1.0 lb/A, Medium Soil 2.0% O.M.
[10] = 2.0 lb/A, Heavy Soil 5-5.5% O.M.
[11] = 2.0 lb/A, Medium Soil 2.0% O.M.

## C#CCN(C(=O)CCl)c1c(C)cccc1CC [Example 15, 2-Chloro-2'-methyl-6'-ethyl-N-propargylacetanilide]
Soybeans [1]; [6]
  % Phytotoxicity, Soybeans: 0%
Soybeans [1]; [7]
  % Phytotoxicity, Soybeans: 0%
Soybeans [1]; 0.5 lb/A, Sand 0.7% O.M.
  % Phytotoxicity, Soybeans: 0%
Soybeans [1]; 0.5 lb/A, Sand 1.8% O.M.
  % Phytotoxicity, Soybeans: 0%
Soybeans [1]; [8]
  % Phytotoxicity, Soybeans: 0%
Soybeans [1]; [9]
  % Phytotoxicity, Soybeans: 0%
Soybeans [1]; 1.0 lb/A, Sand 0.7% O.M.
  % Phytotoxicity, Soybeans: 0%
Soybeans [1]; 1.0 lb/A, Sand 1.8% O.M.
  % Phytotoxicity, Soybeans: 0%
Soybeans [1]; [10]
  % Phytotoxicity, Soybeans: 0%
Soybeans [1]; [11]
  % Phytotoxicity, Soybeans: 0%
Soybeans [1]; 2.0 lb/A, Sand 0.7% O.M.
  % Phytotoxicity, Soybeans: 0%
Soybeans [1]; 2.0 lb/A, Sand 1.8% O.M.
  % Phytotoxicity, Soybeans: 0%
Barnyardgrass; [6]
  % Control, Barnyardgrass: 98%
Barnyardgrass; [7]
  % Control, Barnyardgrass: 100%
Barnyardgrass; 0.5 lb/A, Sand 0.7% O.M.
  % Control, Barnyardgrass: 75%
Barnyardgrass; 0.5 lb/A, Sand 1.8% O.M.
  % Control, Barnyardgrass: 50%
Barnyardgrass; [8]
  % Control, Barnyardgrass: 100%
Barnyardgrass; [9]
  % Control, Barnyardgrass: 100%
Barnyardgrass; 1.0 lb/A, Sand 0.7% O.M.
  % Control, Barnyardgrass: 99%
Barnyardgrass; 1.0 lb/A, Sand 1.8% O.M.
  % Control, Barnyardgrass: 90%
Barnyardgrass; [10]
  % Control, Barnyardgrass: 100%
Barnyardgrass; [11]
  % Control, Barnyardgrass: 100%
Barnyardgrass; 2.0 lb/A, Sand 0.7% O.M.
  % Control, Barnyardgrass: 99%
Barnyardgrass; 2.0 lb/A, Sand 1.8% O.M.
  % Control, Barnyardgrass: 99%
Sorghum; [6]
  % Phytotoxicity, Sorghum: 45%
Sorghum; [7]
  % Phytotoxicity, Sorghum: 60%
Sorghum; 0.5 lb/A, Sand 0.7% O.M.
  % Phytotoxicity, Sorghum: 0%
Sorghum; 0.5 lb/A, Sand 1.8% O.M.
  % Phytotoxicity, Sorghum: 20%
Sorghum; [8]
  % Phytotoxicity, Sorghum: 90%
Sorghum; [9]
  % Phytotoxicity, Sorghum: 100%
Sorghum; 1.0 lb/A, Sand 0.7% O.M.
  % Phytotoxicity, Sorghum: 15%
Sorghum; 1.0 lb/A, Sand 1.8% O.M.
  % Phytotoxicity, Sorghum: 65%
Sorghum; [10]
  % Phytotoxicity, Sorghum: 99%
Sorghum; [11]
  % Phytotoxicity, Sorghum: 100%
Sorghum; 2.0 lb/A, Sand 0.7% O.M.
  % Phytotoxicity, Sorghum: 50%
Sorghum; 2.0 lb/A, Sand 1.8% O.M.
  % Phytotoxicity, Sorghum: 90%
Yellow Foxtail; [6]
  % Control, Yellow Foxtail: 98%
Yellow Foxtail; [7]
  % Control, Yellow Foxtail: 100%
Yellow Foxtail; 0.5 lb/A, Sand 0.7% O.M.
  % Control, Yellow Foxtail: 45%
Yellow Foxtail; 0.5 lb/A, Sand 1.8% O.M.
  % Control, Yellow Foxtail: 30%
Yellow Foxtail; [8]
  % Control, Yellow Foxtail: 100%
Yellow Foxtail; [9]
  % Control, Yellow Foxtail: 100%
Yellow Foxtail; 1.0 lb/A, Sand 0.7% O.M.
  % Control, Yellow Foxtail: 65%
Yellow Foxtail; 1.0 lb/A, Sand 1.8% O.M.
  % Control, Yellow Foxtail: 65%
Yellow Foxtail; [10]
  % Control, Yellow Foxtail: 100%
Yellow Foxtail; [11]
  % Control, Yellow Foxtail: 100%
Yellow Foxtail; 2.0 lb/A, Sand 0.7% O.M.
  % Control, Yellow Foxtail: 90%
Yellow Foxtail; 2.0 lb/A, Sand 1.8% O.M.
  % Control, Yellow Foxtail: 85%
Corn [2]; 0.5 lb/A
  % Crop Kill, Corn: 0%
Corn [2]; 1.0 lb/A
  % Crop Kill, Corn: 3%
Corn [2]; 2.0 lb/A
  % Crop Kill, Corn: 12%
[3]; 0.5 lb/A
  % Control, Broadleaves: 0%
[3]; 1.0 lb/A
  % Control, Broadleaves: 35%
Velvetleaf; 0.25 lb/A
  mortality at 280.212 g/ha: 0%
Velvetleaf; 0.5 lb/A
  mortality at 560.425 g/ha: 27%
Velvetleaf; 1.0 lb/A
  mortality at 1120.85 g/ha: 37%
Velvetleaf; 2.0 lb/A
  mortality at 2241.7 g/ha: 80%
Fall Panicum; 0.25 lb/A
  mortality at 280.212 g/ha: 78%
Fall Panicum; 0.5 lb/A
  mortality at 560.425 g/ha: 96%
Fall Panicum; 1.0 lb/A
  mortality at 1120.85 g/ha: 97%
Fall Panicum; 2.0 lb/A
  mortality at 2241.7 g/ha: 100%
Soybeans [4]; 0.5 lb/A
  % Crop Kill, Soybeans: 0%
Soybeans [4]; 1.0 lb/A
  % Crop Kill, Soybeans: 3%
Soybeans [4]; 2.0 lb/A
  % Crop Kill, Soybeans: 13%
Cotton; 0.5 lb/A
  % Crop Kill, Cotton: 0%
Cotton; 1.0 lb/A
  % Crop Kill, Cotton: 6%
Cotton; 2.0 lb/A
  % Crop Kill, Cotton: 13%
Corn [5]
  injury to the corn: no injury
